Measured values from patent US9938261B2, “Heterocyclic compounds and methods of use thereof” (AMBIT BIOSCIENCES CORPORATION, priority 2011, dated 2018).
pIC50, pKd: −log10 of the molar value. Like-named read-outs stand apart in the source and are kept apart here.

Columns and labels:
CSF1R [1] = biological target: T1, CSF1R (Homo sapiens, UniProt P07333); test: HEK293 CSF1R phosphorylation MSD assay; assay type: cell-based; parameters: expressed in transfected cells; host or cells: HEK293; conditions: read-out: HEK293 pCSF1R M-CSF MSD:IC50
T1 sequence (P07333 20-972): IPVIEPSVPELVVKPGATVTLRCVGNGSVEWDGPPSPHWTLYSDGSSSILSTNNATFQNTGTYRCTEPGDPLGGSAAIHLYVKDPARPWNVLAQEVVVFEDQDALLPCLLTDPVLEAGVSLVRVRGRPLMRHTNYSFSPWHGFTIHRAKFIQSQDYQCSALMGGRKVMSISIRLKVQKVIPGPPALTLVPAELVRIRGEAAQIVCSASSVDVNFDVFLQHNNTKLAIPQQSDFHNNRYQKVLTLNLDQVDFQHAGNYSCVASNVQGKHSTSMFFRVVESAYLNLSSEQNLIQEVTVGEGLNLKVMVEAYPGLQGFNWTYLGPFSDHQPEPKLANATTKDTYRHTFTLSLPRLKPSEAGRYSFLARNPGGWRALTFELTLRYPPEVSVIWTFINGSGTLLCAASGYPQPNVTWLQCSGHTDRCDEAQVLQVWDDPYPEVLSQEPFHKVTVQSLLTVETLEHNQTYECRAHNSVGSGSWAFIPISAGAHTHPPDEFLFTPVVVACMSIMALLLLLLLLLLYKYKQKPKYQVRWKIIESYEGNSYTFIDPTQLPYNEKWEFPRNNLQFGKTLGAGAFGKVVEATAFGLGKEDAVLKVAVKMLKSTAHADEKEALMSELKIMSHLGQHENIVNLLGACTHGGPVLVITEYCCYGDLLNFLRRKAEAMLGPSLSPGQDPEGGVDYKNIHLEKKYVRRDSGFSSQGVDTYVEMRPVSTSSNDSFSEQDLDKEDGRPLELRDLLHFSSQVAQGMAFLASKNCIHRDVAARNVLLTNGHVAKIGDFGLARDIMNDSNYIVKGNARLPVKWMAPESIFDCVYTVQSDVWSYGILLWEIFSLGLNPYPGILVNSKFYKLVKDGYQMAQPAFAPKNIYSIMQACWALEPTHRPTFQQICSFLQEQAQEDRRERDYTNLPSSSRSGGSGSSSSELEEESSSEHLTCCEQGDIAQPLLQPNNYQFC
Experimental: The compounds disclosed herein were tested in a CSF1R phosphorylation assay to determine their cellular potency against CSF1R. A HEK293 cell line expressing CSF1R fused to FK506 binding protein (FKBP) as a molecular tag was generated. Inhibition of CSF1R kinase activity will prevent ligand-stimulated autophosphorylation of the CSF1R-FKBP in intact cells. Subsequent cell lysates are assayed in a sandwich ELISA employing the electrochemiluminescent Meso Scale Discovery (MSD) technology for the presence of the phosphorylated (p)CSF1R-FKBP. This assay determines the potency of compounds as CSF1R inhibitors by measuring the reduction in the amount of pCSF1R with increasing doses of compounds added to the cells prior to M-CSF stimulation.
On day one of the experiment, HEK293-CSF1R-FKPB cells, maintained in DMEM, with L-glutamine (Mediatech), 10% FBS, and 100 units/mL Penicillin/Streptomycin, were seeded at 50,000 cell/well in a volume of 100 μL per well in 96-well Cell Bind plates (Costar). The cells were cultured overnight at 37° C. under 5% CO2. To prepare the plates used in the MSD assay, a 330 nM biotin-FK506 (in TBS pH 7.2) solution was added at 30 μL per well to streptavidin-coated 96-well plates (MSD), and incubated overnight at room temperature, shaking at 500 rpm on an orbital shaker.
On day two, compounds diluted in DMSO were added to the cells in duplicate plates at 9 different concentrations with half-log intervals, plus DMSO only control, alongside a reference compound serving as a positive control. Final DMSO concentration was 0.5% in a volume of 200 μL per well. The compounds were allowed to incubate with the cells for 2 h at 37° C. under 5% CO2. At the end of the incubation, human M-CSF (R&D Systems) was added for 5 min to a final concentration of 50 ng/mL to stimulate CSF1R phosphorylation. Cells were lysed for 20 min, and the lysates were applied to the washed, FK506-coated MSD plates, and incubated overnight at 4° C. shaking at 500 rpm.
On day three, the MSD plates were washed, and the captured CSF1R-FKBP was assayed sequentially for phosphorylation using mouse anti-phosphotyrosine antibody (Millipore) and Sulfo-TAG goat anti-mouse IgG antibody (MSD), and detected on a Sector Imager 6000 instrument (MSD).
A single IC50 value for each compound was determined by averaging the IC50s of the duplicates calculated using Igor Pro 6 software, and represents the compound concentration that achieves a 50% inhibition of ligand-induced CSF1R phosphorylation compared to DMSO control.

KIT = biological target: T2, KIT (Homo sapiens, UniProt P10721); test: Competition binding assay, KIT Kd
T2 construct: made in house
T2 sequence (P10721 26-976): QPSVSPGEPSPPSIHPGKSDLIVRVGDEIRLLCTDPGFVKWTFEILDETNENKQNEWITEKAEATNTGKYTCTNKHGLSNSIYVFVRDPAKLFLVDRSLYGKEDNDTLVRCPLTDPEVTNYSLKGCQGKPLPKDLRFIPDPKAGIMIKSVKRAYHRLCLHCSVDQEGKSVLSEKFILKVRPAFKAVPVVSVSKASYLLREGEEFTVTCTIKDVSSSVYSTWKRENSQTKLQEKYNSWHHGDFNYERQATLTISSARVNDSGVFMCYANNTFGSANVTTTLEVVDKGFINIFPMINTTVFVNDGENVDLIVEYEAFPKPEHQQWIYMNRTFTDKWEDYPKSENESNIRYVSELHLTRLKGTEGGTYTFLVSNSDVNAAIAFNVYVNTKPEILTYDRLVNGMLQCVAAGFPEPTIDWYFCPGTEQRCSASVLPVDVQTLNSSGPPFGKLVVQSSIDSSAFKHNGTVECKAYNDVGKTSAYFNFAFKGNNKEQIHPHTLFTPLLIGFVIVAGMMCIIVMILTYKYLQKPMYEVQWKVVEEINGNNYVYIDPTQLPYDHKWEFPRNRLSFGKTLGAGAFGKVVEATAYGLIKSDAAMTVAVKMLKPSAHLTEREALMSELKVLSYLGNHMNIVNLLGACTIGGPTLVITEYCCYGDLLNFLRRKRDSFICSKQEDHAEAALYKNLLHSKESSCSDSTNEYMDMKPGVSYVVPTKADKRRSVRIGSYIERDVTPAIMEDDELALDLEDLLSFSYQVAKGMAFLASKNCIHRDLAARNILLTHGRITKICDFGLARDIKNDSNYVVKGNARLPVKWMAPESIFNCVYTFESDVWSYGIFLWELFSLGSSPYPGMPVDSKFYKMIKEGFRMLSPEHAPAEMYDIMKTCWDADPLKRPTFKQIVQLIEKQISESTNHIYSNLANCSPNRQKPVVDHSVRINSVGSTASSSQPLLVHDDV
Experimental: (§1) Competition binding assays used herein were developed, validated and performed as described in Fabian et al., Nature Biotechnology 2005, 23, 329-336. Kinases were produced as fusions to T7 phage (See, Fabian et al. or WO04/015142) or alternatively, the kinases were expressed in HEK-293 cells and subsequently tagged with DNA for PCR detection (See, WO08/005310). For the binding assays, streptavidin-coated magnetic beads were treated with biotinylated affinity ligands for 30 min at room temperature to generate affinity resins. The liganded beads were blocked with excess biotin and washed with blocking buffer (SeaBlock (Pierce), 1% BSA, 0.05% Tween 20, 1 mM DTT) to remove unbound ligand and to reduce non-specific binding. Binding reactions were assembled by combining kinase, liganded affinity beads, and test compounds in 1× binding buffer (20% SeaBlock, 0.17×PBS, 0.05% Tween 20, 6 mM DTT). Test compounds were prepared as 100× stocks in DMSO and diluted into the aqueous environment. Kds were determined using an eleven point threefold serial dilutions. DMSO or control compounds were was added to control assays lacking a test compound. Primary screen assays were performed in polypropylene 384-well plates in a final volume of 20-40 μL, while Kd determinations were performed in polystyrene 96-well plates in a final volume of 135 μL. The assay plates were incubated at room temperature with shaking for 1 hour to allow the binding reactions to reach equilibrium, and the affinity beads were washed extensively with wash buffer (1×PBS, 0.05% Tween 20) to remove unbound protein. The beads were then resuspended in elution buffer (1×PBS, 0.05% Tween […] non-biotinylated affinity ligand) and incubated at room temperature with shaking for 30 min. The kinase concentration in the eluates was measured by quantitative PCR.

PDGFRβ = biological target: T3, PDGFRβ (Homo sapiens, UniProt P09619); test: Competition binding assay, PDGFRβ Kd
T3 construct: made in house
T3 sequence (P09619 33-1106): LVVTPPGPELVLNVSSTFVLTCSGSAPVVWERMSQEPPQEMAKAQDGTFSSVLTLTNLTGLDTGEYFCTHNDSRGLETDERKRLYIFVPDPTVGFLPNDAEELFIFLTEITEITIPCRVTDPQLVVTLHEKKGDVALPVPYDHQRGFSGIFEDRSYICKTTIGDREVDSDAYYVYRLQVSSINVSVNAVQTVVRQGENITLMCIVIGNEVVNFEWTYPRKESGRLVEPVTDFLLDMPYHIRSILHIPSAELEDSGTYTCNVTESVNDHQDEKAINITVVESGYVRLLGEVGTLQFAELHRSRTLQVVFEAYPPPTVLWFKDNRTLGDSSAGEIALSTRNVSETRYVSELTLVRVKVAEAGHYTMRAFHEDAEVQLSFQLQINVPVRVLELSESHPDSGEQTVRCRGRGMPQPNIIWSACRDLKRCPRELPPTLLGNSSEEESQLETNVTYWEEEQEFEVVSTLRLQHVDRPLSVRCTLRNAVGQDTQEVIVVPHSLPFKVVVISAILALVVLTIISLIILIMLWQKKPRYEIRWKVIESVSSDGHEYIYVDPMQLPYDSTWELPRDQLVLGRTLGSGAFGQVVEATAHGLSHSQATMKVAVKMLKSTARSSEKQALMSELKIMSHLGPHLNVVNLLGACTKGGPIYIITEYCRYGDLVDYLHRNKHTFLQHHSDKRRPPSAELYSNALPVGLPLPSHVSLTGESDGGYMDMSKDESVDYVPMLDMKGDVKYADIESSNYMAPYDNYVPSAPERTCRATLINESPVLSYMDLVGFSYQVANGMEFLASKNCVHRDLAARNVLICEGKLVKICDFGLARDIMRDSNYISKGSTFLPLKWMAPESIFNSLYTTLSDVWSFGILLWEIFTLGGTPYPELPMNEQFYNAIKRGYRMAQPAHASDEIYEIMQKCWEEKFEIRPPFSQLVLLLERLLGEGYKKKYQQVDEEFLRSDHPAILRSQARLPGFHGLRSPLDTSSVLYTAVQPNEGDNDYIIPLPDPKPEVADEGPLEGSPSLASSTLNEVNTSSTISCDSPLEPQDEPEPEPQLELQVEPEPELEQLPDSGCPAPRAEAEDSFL
Experimental: as §1

M-NFS-60 cells = test: M-NFS-60 cell proliferation assay (Alamar Blue); assay type: cell-based, mouse; conditions: Mus musculus, read-out: CSF1R M-NFS-60 CTB:IC50
Experimental: The compounds disclosed herein were tested in an M-NFS-60 cell proliferation assay to determine their cellular potency against CSF1R. M-NFS-60s are mouse monocytic cells that depend on the binding of the ligand M-CSF to its receptor, CSF1R, to proliferate. Inhibition of CSF1R kinase activity will cause reduced growth and/or cell death. This assay assesses the potency of compounds as CSF1R inhibitors by measuring the reduction of Alamar Blue reagent by viable cells.
On day one of the experiment, M-NFS-60 cells were maintained in RPMI complete medium (Omega Scientific) plus 10% FBS supplemented with 20 ng/mL of M-CSF (R&D Systems). 96-well TC-treated, flat bottom plates were seeded at 10,000 cell/well at a volume of 100 μL per well. The cells were cultured overnight at 37° C. under 5% CO2.
On day two, compounds were added to the cells at 9 different concentrations, with half-log intervals alongside a control reference compound serving as a positive control. Final DMSO concentration was kept at 0.5% for a final volume of 200 μL. The compounds were allowed to incubate with the cells for 72 hours at 37° C. under 5% CO2.
On day five of the experiment, 40 μl of Alamar Blue reagent was added to each well and allowed to incubate for 3 hours. Alamar Blue fluorescence was read using SoftMax Pro software at 560 nm (excitation) and 590 nm (emission). IC50s were generated as an average of duplicates and represents the concentration of test compound that achieves 50% inhibition of cellular proliferation compared to control.

CSF1R [2] = biological target: T1, CSF1R; test: Competition binding assay, CSF1R Kd; parameters: made in house
Experimental: as §1

FLT3 = biological target: T4, FLT3 (Homo sapiens, UniProt P36888); test: Competition binding assay, FLT3 Kd
T4 construct: made in house
T4 sequence (P36888 27-993): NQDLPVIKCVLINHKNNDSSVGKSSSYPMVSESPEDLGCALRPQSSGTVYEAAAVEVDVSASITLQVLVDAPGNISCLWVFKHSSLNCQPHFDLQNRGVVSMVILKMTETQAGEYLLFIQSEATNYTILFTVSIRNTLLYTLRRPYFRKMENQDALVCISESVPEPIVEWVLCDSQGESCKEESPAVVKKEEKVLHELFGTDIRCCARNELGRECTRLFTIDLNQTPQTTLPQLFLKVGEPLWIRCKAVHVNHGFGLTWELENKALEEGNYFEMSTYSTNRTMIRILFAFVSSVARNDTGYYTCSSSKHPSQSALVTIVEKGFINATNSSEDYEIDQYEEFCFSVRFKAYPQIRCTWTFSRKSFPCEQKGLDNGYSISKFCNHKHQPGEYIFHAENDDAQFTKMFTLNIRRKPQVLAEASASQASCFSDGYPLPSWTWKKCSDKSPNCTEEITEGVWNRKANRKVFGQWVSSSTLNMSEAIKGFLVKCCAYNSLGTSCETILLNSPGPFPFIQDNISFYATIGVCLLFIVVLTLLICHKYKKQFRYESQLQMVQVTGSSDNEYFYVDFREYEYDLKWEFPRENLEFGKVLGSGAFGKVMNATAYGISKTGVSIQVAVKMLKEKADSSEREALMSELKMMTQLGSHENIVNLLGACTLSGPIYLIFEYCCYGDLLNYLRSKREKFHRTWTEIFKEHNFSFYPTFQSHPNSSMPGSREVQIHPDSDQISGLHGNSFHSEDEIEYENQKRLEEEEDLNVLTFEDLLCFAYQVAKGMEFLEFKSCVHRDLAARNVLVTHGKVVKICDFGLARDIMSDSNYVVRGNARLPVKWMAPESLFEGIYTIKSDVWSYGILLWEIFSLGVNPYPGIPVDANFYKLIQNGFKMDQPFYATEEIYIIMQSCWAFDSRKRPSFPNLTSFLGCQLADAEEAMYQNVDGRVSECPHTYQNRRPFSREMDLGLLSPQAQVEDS
Experimental: as §1

[3] = HEK293 cells, M-CSF stimulated CSF1R phosphorylation, MSD
[4] = 2 h compound, human M-CSF 50 ng/mL for 5 min
[5] = 72 hours incubation, M-CSF 20 ng/mL

SMILES	pIC50 (CSF1R [1]; [3])	pKd (KIT; competition binding)	pKd (PDGFRβ; competition binding)	pIC50 (M-NFS-60 cells; M-NFS-60 cell proliferation)	pKd (CSF1R [2]; competition binding)	pKd (FLT3; competition binding)	pIC50 (CSF1R [1]; [4])	pKd (KIT)	pKd (PDGFRβ)	pIC50 (M-NFS-60 cells; [5])	pKd (CSF1R [2])	pKd (FLT3)
O[C@@H]1CCCC[C@H]1Nc1nc2ccc(Cn3cnc4cc(C5=CCOCC5)ccc43)cc2s1 [Example 174, (1R,2R)-2-((6-((5-(3,6-dihydro-2H-pyran-4-yl)-1H-benzo[d]imidazol-1-yl)methyl)benzo[d]thiazol-2-yl)amino)cyclohexanol]	≥ 7.30	≥ 7.00	≥ 7.30	≥ 7.30	≥ 8.30	≥ 6.70	–	–	–	–	–	–
COc1cc2ncn(Cc3ccc4nc(NCc5ccncc5)sc4c3)c2cc1OC [Example 21, 6-((5,6-dimethoxy-1H-benzo[d]imidazol-1-yl)methyl)-N-(pyridin-4-ylmethyl)benzo[d]thiazol-2-amine]	–	–	–	–	–	–	6.30 to 6.70	< 5.70	< 5.70	< 5.82	< 7.30	< 5.30
CC(=O)c1ccc2ncn(Cc3ccc4nc(N[C@@H]5CCCC[C@H]5O)sc4c3)c2n1 [Example 88, 1-(3-((2-(((1R,2R)-2-hydroxycyclohexyl)amino)benzo[d]thiazol-6-yl)methyl)-3H-imidazo[4,5-b]pyridin-5-yl)ethanone]	–	–	–	–	–	–	6.70 to 7.30	≥ 7.00	6.30 to 7.30	≥ 7.30	≥ 8.30	6.00 to 6.70
NCc1cnc2c(c1)ncn2Cc1ccc2nc(N[C@@H]3CCCC[C@H]3O)sc2c1 [Example 91, (1R,2R)-2-((6-((6-(aminomethyl)-3H-imidazo[4,5-b]pyridin-3-yl)methyl)benzo[d]thiazol-2-yl)amino)cyclohexanol acetate]	–	–	–	–	–	–	< 6.30	6.30 to 7.00	6.30 to 7.30	6.40 to 7.30	< 7.30	≥ 6.70
O[C@H]1CCCCC1Nc1nc2ccc(Cn3cnc4cc(F)cnc43)cc2s1 (stereo in doubt) [Example 213, (1S,2S)-2-((6-((6-fluoro-3H-imidazo[4,5-b]pyridin-3-yl)methyl)benzo[d]thiazol-2-yl)amino)cyclohexanol]	6.70 to 7.30	≥ 7.00	≥ 7.30	6.40 to 7.30	≥ 8.30	6.00 to 6.70	–	–	–	–	–	–
CNC(=O)c1cnc2c(c1)ncn2Cc1ccc2nc(N[C@@H]3CCCC[C@H]3O)sc2c1 [Example 89, 3-((2-(((1R,2R)-2-hydroxycyclohexyl)amino)benzo[d]thiazol-6-yl)methyl)-N-methyl-3H-imidazo[4,5-b]pyridine-6-carboxamide]	–	–	–	–	–	–	6.70 to 7.30	≥ 7.00	≥ 7.30	6.40 to 7.30	7.70 to 8.30	5.30 to 6.00
O[C@@H]1CCCC[C@H]1Nc1nc2ccc(Cn3cnc4cc(C5=CCNCC5)ccc43)cc2s1 [Example 225, (1R,2R)-2-((6-((5-(1,2,3,6-tetrahydropyridin-4-yl)-1H-benzo[d]imidazol-1-yl)methyl)benzo[d]thiazol-2-yl)amino)cyclohexanol]	6.70 to 7.30	≥ 7.00	≥ 7.30	5.82 to 6.40	≥ 8.30	6.00 to 6.70	–	–	–	–	–	–
COc1cc2ncn(Cc3ccc4nc(NC[C@H]5CCCO5)sc4c3)c2cc1OC [Example 8, (R)-6-((5,6-dimethoxy-1H-benzo[d]imidazol-1-yl)methyl)-N-((tetrahydrofuran-2-yl)methyl)benzo[d]thiazol-2-amine]	–	–	–	–	–	–	6.30 to 6.70	5.70 to 6.30	5.70 to 6.30	< 5.82	7.70 to 8.30	5.30 to 6.00
COc1cc2ncn(Cc3ccc4nc(NC5CCN(C(C)=O)CC5)sc4c3)c2cc1OC [Example 24, 1-(4-((6-((5,6-dimethoxy-1H-benzo[d]imidazol-1-yl)methyl)benzo[d]thiazol-2-yl)amino)piperidin-1-yl)ethanone acetic acid]	–	–	–	–	–	–	< 6.30	< 5.70	< 5.70	< 5.82	< 7.30	< 5.30
